# Assay results from PMC11167311, “Revolutionizing GPCR–ligand predictions: DeepGPCR with experimental validation for high-precision drug discovery” (Briefings in Bioinformatics, 2024).
# Read-outs that look alike come from different tables or passages of the source.
# Assays:
# hGPR35 [1] = biological target: T1, hGPR35 (Homo sapiens, UniProt Q9HC97); experiment: DMR agonism assay in CHO-GPR35 cells; assay type: cell-based
# T1 construct: expressed in transfected cells
# Protocol: (§1) CHO-GPR35 cells were the same as our previously reported. CHO-GPR35 cells were cultured in an F12 medium supplemented with 10% FBS, penicillin (50 μg/ml), streptomycin (100 μg/ml) and zeocin (200 μg/ml) at 37°C under 5% CO2. HEK293 cells were purchased from the National Collection of Authenticated Cell Cultures (Shanghai, China) and cultured in DMEM medium supplemented with 10% FBS, penicillin (50 μg/ml) and streptomycin (100 μg/ml) and at 37°C under 5% CO2.
# (§2) When the cells approached 90% confluence, they were seeded in 384-well biosensor plates with a density of 1.5 × 10^4 CHO-GPR35 or 2.5 × 10^4 HEK293-GLP-1R cells/well and cultured for 24 h. The culture medium in the 384-well biosensor plates was replaced with 30 μl of Hank’s balanced salt solution (1 × HBSS) and then further incubated inside the system for 1 h before measurement. For the dynamic mass redistribution (DMR) agonism assay, a 2-min baseline was first established, followed by adding compounds using the multi-channel pipette, and the compound-triggered DMR responses were recorded for approximately 1 h. […] For DMR antagonism assay, cells were initially treated with either an antagonist or compound for 1 h in GPR35 and 90 min in GLP-1R assays, respectively. […] All DMR responses were background-corrected.
# hGPR35 [2] = biological target: T1, hGPR35; experiment: DMR antagonism (desensitization) assay in CHO-GPR35 cells, zaprinast challenge; assay type: cell-based; conditions: for GPR35 receptor activity (result in words): CHO-GPR35 cells, desensitization when stimulated by agonist zaprinast
# Protocol: as §1, §2
# T1 sequence (Q9HC97 whole entry): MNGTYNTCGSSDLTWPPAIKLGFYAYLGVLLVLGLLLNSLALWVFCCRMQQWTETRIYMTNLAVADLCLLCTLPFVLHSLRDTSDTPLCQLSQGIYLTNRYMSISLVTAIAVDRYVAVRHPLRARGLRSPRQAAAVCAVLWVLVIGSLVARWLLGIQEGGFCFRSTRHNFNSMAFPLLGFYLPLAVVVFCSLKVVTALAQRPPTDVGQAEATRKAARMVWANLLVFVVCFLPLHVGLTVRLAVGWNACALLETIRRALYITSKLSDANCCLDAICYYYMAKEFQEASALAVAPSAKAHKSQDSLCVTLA
SMILES,compound-triggered DMR signal in CHO-GPR35 cells (hGPR35 [1]),GPR35 receptor activity (result in words) (hGPR35 [2]),"IC50 (hGPR35 [2]; read-out: IC50 (hGPR35, DMR desensitization)) [µM]",IC50 (hGPR35 [2]) [µM]
CC(C)NC(=O)c1cccc(-c2noc(CCc3c[nH]c4ccccc34)n2)c1 [F545-1970],do not show a significant increase in DMR signal,"GPR35 receptor antagonistic activity, with relatively weak activity",38.8,–
COCC12CCN(c3ccc(C#N)c(C(F)(F)F)c3)CC1CN(C(=O)CCc1ccccc1)C2 (stereo not drawn) [S948-0241],do not show a significant increase in DMR signal,"GPR35 receptor antagonistic activity, with relatively weak activity",–,67.9
